Like-named read-outs stand apart in the source and are kept apart here.
Assays:
[1] = 13-membered ring
[2] = target: T1, CFTR-mediated chloride transport in human intestinal epithelial enteroid cells (Homo sapiens, UniProt P13569); assay: Membrane potential dye, Enteroid Assay A; assay type: cell-based; conditions: for EC50: read-out: Ent. A EC50
Method in brief: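 Membrane potential dye (20 μM methyl oxonol, with 30 μM CaCCinh-A01 and 30 μM Chicago Sky Blue) loaded 25 min at room temperature into ROCK-inhibitor-seeded human enteroid cells. Chloride-free stimulation buffer triggered transport, followed by 15 min fluorescence. % Activity relative to 3 μM/3 μM/300 nM triple-combination control.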

[3] = target: T1, CFTR-mediated chloride transport in human intestinal epithelial enteroid cells; assay: Membrane potential dye, Enteroid Assay B; assay type: cell-based; conditions: Enteroid Assay B; for EC50: read-out: Ent. B EC50
Procedure: Base medium (ADF+++) consisted of Advanced DMEM/Ham's F12, 2 mM Glutamax, 10 mM HEPES, […] penicillin/streptomycin.
Bath 1 Buffer consisted of 1 mM MgCl2, 160 mM NaCl, 4.5 mM KCl, 10 mM HEPES, 10 mM Glucose, 2 mM CaCl2.
Chloride Free Buffer consisted of 1 mM Magnesium Gluconate, 2 mM Calcium Gluconate, 4.5 mM Potassium Gluconate, 160 mM Sodium Gluconate, 10 mM HEPES, 10 mM Glucose.
Bath1 Dye Solution consisted of Bath 1 Buffer, 0.04% Pluronic F127, 20 μM Methyl Oxonol, 30 μM CaCCinh-A01, 30 μM Chicago Sky Blue.
Chloride Free Dye Solution consisted of Chloride Free Buffer, 0.04% Pluronic F127, 20 μM Methyl Oxonol, 30 μM CaCCinh-A01, 30 μM Chicago Sky Blue.
3. Enteroid Cell Harvesting and Seeding
Cells were recovered in cell recovery solution, collected by centrifugation at 650 rpm for 5 min at 4° C., resuspended in TryPLE and incubated for 5 min at 37° C. Cells were then collected by centrifugation at 650 rpm for 5 min at 4° C. and resuspended in IEMM containing 10 μM ROCK inhibitor (RI).
5. Membrane Potential Dye, Enteroid Assay B
Briefly, cells were washed 5 times in Bath 1 Buffer. Bath 1 Dye Solution was added and the cells were incubated for 25 min at room temperature. Following dye incubation, cells were washed 3 times in Chloride Free Dye Solution. Chloride transport was initiated by addition of Chloride Free Dye Stimulation Solution and the fluorescence signal was read for 15 min.

[4] = from Cc1cccc(C)c1-c1cc(OC2CCCC(c3ncc(OC(C)C)cn3)N[C@@H]2CC(C)C)nc(NS(=O)(=O)c2cccc(C(=O)O)c2)n1, amide bond, CDMT/NMM, DMF, 7.3 mM, 60.0 h

T1 sequence (P13569 with tags, fused parts or gaps DEL508-508): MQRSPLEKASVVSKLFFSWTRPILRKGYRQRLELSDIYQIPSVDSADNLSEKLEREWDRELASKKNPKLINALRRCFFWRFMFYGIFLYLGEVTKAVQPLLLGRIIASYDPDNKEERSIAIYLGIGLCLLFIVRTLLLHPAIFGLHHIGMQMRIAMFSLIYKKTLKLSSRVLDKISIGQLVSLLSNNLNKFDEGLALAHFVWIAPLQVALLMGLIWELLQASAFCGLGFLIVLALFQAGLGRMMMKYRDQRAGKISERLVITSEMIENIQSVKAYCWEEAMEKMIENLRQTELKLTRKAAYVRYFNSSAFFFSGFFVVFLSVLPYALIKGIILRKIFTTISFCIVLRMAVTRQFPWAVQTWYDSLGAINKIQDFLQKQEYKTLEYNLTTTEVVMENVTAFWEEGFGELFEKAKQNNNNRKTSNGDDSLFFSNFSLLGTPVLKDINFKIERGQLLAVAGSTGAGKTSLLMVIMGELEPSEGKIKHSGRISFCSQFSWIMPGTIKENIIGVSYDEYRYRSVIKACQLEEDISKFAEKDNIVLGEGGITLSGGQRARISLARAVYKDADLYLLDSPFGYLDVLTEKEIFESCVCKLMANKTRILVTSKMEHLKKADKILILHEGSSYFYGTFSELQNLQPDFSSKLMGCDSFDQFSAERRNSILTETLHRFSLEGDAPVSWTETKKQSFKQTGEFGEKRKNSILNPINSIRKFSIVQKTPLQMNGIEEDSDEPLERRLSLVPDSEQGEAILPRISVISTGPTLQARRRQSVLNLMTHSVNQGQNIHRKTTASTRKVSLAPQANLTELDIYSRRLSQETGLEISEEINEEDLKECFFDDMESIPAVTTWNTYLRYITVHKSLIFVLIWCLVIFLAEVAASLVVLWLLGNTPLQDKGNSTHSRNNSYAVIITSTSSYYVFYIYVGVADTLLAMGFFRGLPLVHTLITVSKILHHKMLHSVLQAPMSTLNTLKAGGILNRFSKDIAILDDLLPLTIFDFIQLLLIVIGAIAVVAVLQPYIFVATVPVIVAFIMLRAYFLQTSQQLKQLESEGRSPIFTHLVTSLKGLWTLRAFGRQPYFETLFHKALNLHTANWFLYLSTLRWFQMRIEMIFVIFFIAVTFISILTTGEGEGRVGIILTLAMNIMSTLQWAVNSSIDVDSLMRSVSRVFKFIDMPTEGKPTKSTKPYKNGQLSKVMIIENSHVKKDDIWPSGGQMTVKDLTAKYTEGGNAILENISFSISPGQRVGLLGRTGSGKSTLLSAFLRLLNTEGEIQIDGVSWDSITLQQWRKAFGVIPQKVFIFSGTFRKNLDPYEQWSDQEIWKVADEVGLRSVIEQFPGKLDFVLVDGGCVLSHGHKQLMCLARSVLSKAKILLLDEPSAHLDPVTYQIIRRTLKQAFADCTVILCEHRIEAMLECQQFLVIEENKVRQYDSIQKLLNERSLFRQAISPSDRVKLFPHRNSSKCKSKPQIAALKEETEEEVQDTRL

What does the source list for `Cc1cccc(C)c1-c1cc2nc(n1)NS(=O)(=O)c1cccc(c1)C(=O)N1CC(C)(C)CC(O2)C1CC(C)C` (centres unmarked)?
ring closure, isolated yield ([1]; from Cc1cccc(C)c1-c1cc(Cl)nc(NS(=O)(=O)c2cccc(C(=O)N3CC(C)(C)CC(O)C3CC(C)C)c2)n1, snar bond, NaH, DMF, 16.4 mM, 25.0 °C, 16.0 h): 23%; ring closure, isolated yield ([1]; from Cc1cccc(C)c1-c1cc(Cl)nc(NS(=O)(=O)c2cccc(C(=O)N3CC(C)(C)CC(O)C3CC(C)C)c2)n1, snar bond, NaH, DMF, 17.8 mM, 25.0 °C, 8.0 h): 72%

What does the source list for `Cc1cccc(C)c1-c1cc2nc(n1)NS(=O)(=O)c1cccc(c1)CN1CC(CN(C(=O)OC(C)(C)C)CC1=O)O2` (centres unmarked) [Compound 77, tert-Butyl 12-(2,6-dimethylphenyl)-8,8,20-trioxo-15-oxa-8λ^6-thia-1,9,11,18,22-pentaazatetracyclo[14.4.1.13,7.110,14]tricosa-3(23),4,6,10,12,14(22)-hexaene-18-carboxylate]?
ring closure, isolated yield ([1]; from Cc1cccc(C)c1-c1cc(OC2CNC(=O)CN(C(=O)OC(C)(C)C)C2)nc(NS(=O)(=O)c2cccc(CBr)c2)n1, other bond, NaH, DMF, 19.7 mM, 0.0 °C, 0.5 h): 68%; Ent. A Max Activity (%) ([2]; Enteroid Assay A): ++ (++ is 30-60%); EC50 ([2]; Enteroid Assay A): < 1000 nM

For `Cc1cccc(C)c1-c1cc2nc(n1)NS(=O)(=O)c1cccc(c1)C(=O)N1CCN(C(=O)OC(C)(C)C)CC1CO2` (centres unmarked), which ring closure, isolated yield ([1]; from Cc1cccc(C)c1-c1cc(OCC2CN(C(=O)OC(C)(C)C)CCN2)nc(NS(=O)(=O)c2cccc(C(=O)O)c2)n1, amide bond, HATU/DIEA, DMF, 13.8 mM, 25.0 °C, 2.0 h, 2 steps) is on record?
The ring closure, isolated yield was 81%.

For `Cc1cccc(C)c1-c1cc2nc(n1)NS(=O)(=O)c1cccc(c1)C(=O)N1CCN(C(=O)OCc3ccccc3)CC(O2)[C@H]1C` (single isomer, unassigned; diastereomer 1), which ring closure, isolated yield ([1]; from Cc1cccc(C)c1-c1cc(Cl)nc(NS(=O)(=O)c2cccc(C(=O)N3CCN(C(=O)OCc4ccccc4)CC(O)[C@H]3C)c2)n1, snar bond, NaH, DMF, 29.4 mM, 0.0 °C, 1.25 h) is on record?
The ring closure, isolated yield was 17%.

Which results are given for `Cc1cccc(C)c1-c1cc2nc(n1)NS(=O)(=O)c1cccc(c1)C(=O)N1C[C@@H](CN(C(=O)OC(C)(C)C)C[C@@H]1CCC(C)C)O2` [Compound 129, tert-Butyl (16S,20S)-12-(2,6-dimethylphenyl)-20-(3-methylbutyl)-2,8,8-trioxo-15-oxa-8λ^6-thia-1,9,11,18,22-pentaazatetracyclo[14.4.1.13,7.110,14]tricosa-3(23),4,6,10(22),11,13-hexaene-18-carboxylate]?
ring closure, isolated yield ([1]; from Cc1cccc(C)c1-c1cc(Cl)nc(NS(=O)(=O)c2cccc(C(=O)N3C[C@H](O)CN(C(=O)OC(C)(C)C)C[C@@H]3CCC(C)C)c2)n1, snar bond, NaH, DMF, 29.8 mM, 3.67 h): 53%; Ent. A Max Activity (%) ([2]; Enteroid Assay A): ++ (++ is 30-60%); EC50 ([2]; Enteroid Assay A): < 1000 nM

Which ring closure, isolated yield ([1]; from Cc1cccc(C)c1-c1cc(Cl)nc(NS(=O)(=O)c2cccc(C(=O)N3CCN(C(=O)OC(C)(C)C)CC(O)C3)c2)n1, snar bond, NaH, DMF, 15.5 mM, 25.0 °C, 16.0 h) does the source give for `Cc1cccc(C)c1-c1cc2nc(n1)NS(=O)(=O)c1cccc(c1)C(=O)N1CCN(C(=O)OC(C)(C)C)CC(C1)O2` (centres unmarked) [Compound 43, tert-Butyl 12-(2,6-dimethylphenyl)-2,8,8-trioxo-15-oxa-8λ^6-thia-1,9,11,18,22-pentaazatetracyclo[14.4.1.13,7.110,14]tricosa-3(23),4,6,10(22),11,13-hexaene-18-carboxylate] here?
Its ring closure, isolated yield is 56%.

And the EC50 ([2]; enteroid cells incubated with test compound 18-24 hours, acute 10 μM forskolin and 300 nM N-[2,4-bis(1,1-dimethylethyl)-5-hydroxyphenyl]-1,4-dihydro-4-oxoquinoline-3-carboxamide)?
Its EC50 is under 1000 nM.

What about the “Ent. A Max Activity (%)” value ([2]; percentage of chloride transport of triple combination control (3 μM N-[(6-amino-2-pyridyl)sulfonyl]-6-(3-fluoro-5-isobutoxy-phenyl)-2-[(4S)-2,2,4-trimethylpyrrolidin-1-yl]pyridine-3-carboxamide based)) of the same compound?
The value was “+++ (+++ is >60%)”.

With `Cc1cccc(C)c1-c1cc2nc(n1)NS(=O)(=O)c1cccc(c1)C(=O)N1CCN(C(=O)OC(C)(C)C)C[C@H](C1)O2` as the compound, how does the ring closure, isolated yield ([1]; from Cc1cccc(C)c1-c1cc(Cl)nc(NS(=O)(=O)c2cccc(C(=O)N3CCN(C(=O)OC(C)(C)C)C[C@@H](O)C3)c2)n1, snar bond, NaH, DMF, 33.1 mM, 0.0 °C, 3.5 h) read?
Its ring closure, isolated yield is 64%.

With `Cc1cccc(C)c1-c1cc2nc(n1)NS(=O)(=O)c1cccc(c1)C(=O)N1C(c3ncc(OC(C)C)cn3)CCCC(O2)[C@H]1CC(C)C` (single isomer, unassigned; isomer 2) as the compound, how does the ring closure, isolated yield [1, 4] read?
Its ring closure, isolated yield is 27%.

Which ring closure, isolated yield ([1]; from Cc1cccc(C)c1-c1cc(Cl)nc(NS(=O)(=O)c2cccc(C(=O)N3CCN(C(=O)OC(C)(C)C)C[C@H]3CO)c2)n1, snar bond, NaH, NMP, 4.4 mM, 70.0 °C, 2.0 h, 2 steps) does the source give for `Cc1cccc(C)c1-c1cc2nc(n1)NS(=O)(=O)c1cccc(c1)C(=O)N1CCN(C(=O)OC(C)(C)C)C[C@H]1CO2` here?
The ring closure, isolated yield was 19%.

For `Cc1cccc(C)c1-c1cc2nc(n1)NS(=O)(=O)c1cccc(c1)C(=O)N1C[C@@H](CCCC1CC(C)C)O2` (stereo partly drawn) [Compound 181, (16R)-12-(2,6-Dimethylphenyl)-20-(2-methylpropyl)-15-oxa-8λ^6-thia-1,9,11,22-tetraazatetracyclo[14.4.1.13,7.110,14]tricosa-3(23),4,6,10(22),11,13-hexaene-2,8,8-trione], which ring closure, yield after HPLC (from Cc1cccc(C)c1-c1cc(Cl)nc(NS(=O)(=O)c2cccc(C(=O)N3C[C@H](O)CCCC3CC(C)C)c2)n1, snar bond, 13-membered ring, NaOtBu, THF, 17.5 mM, 25.0 °C, 24.0 h) is on record?
The ring closure, yield after HPLC was 4%.

And the “Ent. B Max Activity (%)” value [3]?
Its value is “++ (++ is 30-60%)”.

What about the EC50 [3] of the same compound?
The EC50 was under 1000 nM.

For `Cc1cccc(C)c1-c1cc2nc(n1)NS(=O)(=O)c1cccc(c1)C(=O)N1Cc3cc(C(C)(C)C)ccc3C(C1)O2` (centres unmarked), which ring closure, isolated yield ([1]; from Cc1cccc(C)c1-c1cc(OC2CNCc3cc(C(C)(C)C)ccc32)nc(NS(=O)(=O)c2cccc(C(=O)O)c2)n1, amide bond, HATU/NaOtBu, THF/DMF, 25.0 °C, 0.25 h, 3 steps) is on record?
The ring closure, isolated yield was 14%.

For `Cc1cccc(C)c1-c1cc2nc(n1)NS(=O)(=O)c1cccc(c1)C(=O)N1CCN(C(=O)OCc3ccccc3)C[C@H](C1)O2`, which ring closure, isolated yield ([1]; from Cc1cccc(C)c1-c1cc(Cl)nc(NS(=O)(=O)c2cccc(C(=O)N3CCN(C(=O)OCc4ccccc4)C[C@@H](O)C3)c2)n1, snar bond, NaH, DMF, 30.4 mM, 5.0 °C, 2.0 h) is on record?
The ring closure, isolated yield was 44%.

For `Cc1cccc(C)c1-c1cc2nc(n1)NS(=N)(=O)c1cccc(c1)C(=O)N1CCN(C(=O)OC(C)(C)C)CC(C1)O2` (centres unmarked), which ring closure, isolated yield ([1]; from Cc1cccc(C)c1-c1cc(Cl)nc(NS(=N)(=O)c2cccc(C(=O)N3CCN(C(=O)OC(C)(C)C)CC(O)C3)c2)n1, snar bond, NaH, DMF, 15.3 mM, 1.5 h) is on record?
The ring closure, isolated yield was 23%.

For `Cc1cccc(C)c1-c1cc2nc(n1)NS(=O)(=O)c1cccc(c1)C(=O)N1C(c3ncc(OC(C)C)cn3)CCCC(CC(C)C)C1CO2` (single isomer, unassigned; isomer a), which ring closure, isolated yield ([1]; from Cc1cccc(C)c1-c1cc(OCC2NC(c3ncc(OC(C)C)cn3)CCCC2CC(C)C)nc(NS(=O)(=O)c2cccc(C(=O)O)c2)n1, amide bond, CDMT/NMM, DMF, 16.2 mM, 40.0 h, 2 steps) is on record?
Its ring closure, isolated yield is 35%.

Which ring closure, isolated yield [1, 4] does the source give for `Cc1cccc(C)c1-c1cc2nc(n1)NS(=O)(=O)c1cccc(c1)C(=O)N1C(c3ncc(OC(C)C)cn3)CCCC(O2)[C@H]1CC(C)C` (some centres unmarked) here?
The ring closure, isolated yield was 14%.

For `Cc1cccc(C)c1-c1cc2nc(n1)NS(=O)(=O)c1cccc(c1)C(=O)N1C(c3ncc(OC(C)C)cn3)CCCC(O2)[C@H]1CC(C)C` (single isomer, unassigned; isomer 1), which ring closure, isolated yield ([1]; from Cc1cccc(C)c1-c1cc(OC2CCCC(c3ncc(OC(C)C)cn3)N[C@@H]2CC(C)C)nc(NS(=O)(=O)c2cccc(C(=O)O)c2)n1, amide bond, CDMT/NMM, DMF, 16.3 mM, 24.0 h) is on record?
Its ring closure, isolated yield is 23%.

For `Cc1cccc(C)c1-c1cc2nc(n1)NS(=O)(=O)c1cccc(c1)C(=O)N1Cc3ccccc3C(CO2)C1` (centres unmarked) [Compound 238, 12-(2,6-Dimethylphenyl)-15-oxa-8λ^6-thia-1,9,11,26-tetraazapentacyclo[15.7.1.13,7.110,14.018,23]heptacosa-3,5,7(27),10(26),11,13,18,20,22-nonaene-2,8,8-trione], which ring closure, yield after HPLC (from Cc1cccc(C)c1-c1cc(OCC2CNCc3ccccc32)nc(NS(=O)(=O)c2cccc(C(=O)O)c2)n1, amide bond, 14-membered ring, HATU/DIEA, DMF/THF, 136.0 mM, 16.0 h, 2 steps) is on record?
The ring closure, yield after HPLC was 5%.

And the EC50 [3]?
Its EC50 is under 1000 nM.

Which results are given for `Cc1cccc(C)c1-c1cc2nc(n1)NS(=O)(=O)c1cccc(c1)C(=O)N1CCc3cc(C(C)(C)C)ccc3C(O2)[C@H]1CC(C)C` (single isomer, unassigned) [Compound 237]?
ring closure, yield after HPLC (from Cc1cccc(C)c1-c1cc(OC2c3ccc(C(C)(C)C)cc3CCN[C@@H]2CC(C)C)nc(NS(=O)(=O)c2cccc(C(=O)O)c2)n1, amide bond, 13-membered ring, NaOtBu, HATU, THF/DMF, 19.2 mM, 0.0 °C, 0.08 h, 2 steps): 18%; EC50 [3]: < 1000 nM
